Assay results: patent publication US8933075B2, “Compounds useful as antiviral agents, compositions, and methods of use” (priority 2010, dated 2015)

Experiments:
A/Udorn/72 (H3N2) virus = assay: Plaque assay in MDCK cells: EC50 by reduction of plaque number; assay type: cell-based, influenza virus; settings: MDCK
pseudoHIV particles = assay: HIV pseudovirus assay in X4 cells (luciferase); assay type: cell-based, HIV-1; settings: Human immunodeficiency virus 1, read-out: HIV EC50
Method: A plasmid coding the HIV-1 genome, deleting the envelope protein gene and with a luciferase gene inserted, and a plasmid coding the envelope protein gene were cotransfected into 293T cells. After 48 hr, the supernatant containing pseudoHlV particles was collected for transducing assay. In 96 well plates, X4 cells were plated and incubated till confluent. The pseudoHlV particles were incubated with various concentrations of inhibitor compounds for one hour in room temperature. The particles were then used for tranducing X4 cells. The transduced X4 cells were lysed after 48 hr and the luciferase activity was measured in a luminometer.

Structure (SMILES)	EC50 (A/Udorn/72 (H3N2) virus) [nM]	EC50 (pseudoHIV particles) [nM]
COc1cc(O)cc(-c2ccc(/C=C3\SC(=S)N(C4CC5CCC4C5)C3=O)o2)c1 (centres unmarked) [Compound 17]	< 100	< 100
COc1cc(OC)cc(-c2ccc(/C=C3\SC(=S)N(C4CC5CCC4C5)C3=O)o2)c1 (centres unmarked) [Compound 19]	< 100	< 100
COc1cc(OC)cc(-c2ccc(/C=C3\SC(=S)N(C4C5CC6CC(C5)CC4C6)C3=O)o2)c1 (centres unmarked) [Compound 20]	< 100	< 100
CCOC(=O)COc1cc(-c2ccc(/C=C3\SC(=S)N(C4C5CC6CC(C5)CC4C6)C3=O)o2)ccc1OC (centres unmarked) [Compound 21]	< 100	< 100
CCOC(=O)COc1cc(-c2ccc(/C=C3\SC(=S)N(C4CC5CCC4C5)C3=O)o2)ccc1OC (centres unmarked) [Compound 22]	< 100	< 100
COc1ccc(-c2ccc(/C=C3\SC(=S)N(C4C5CC6CC(C5)CC4C6)C3=O)o2)cc1O (centres unmarked) [Compound 23]	< 100	< 100
CCOC(=O)COc1cc(-c2ccc(/C=C3\SC(=S)N(C4CC5CCC4C5)C3=O)o2)cc(OC)c1OC (centres unmarked) [Compound 29]	< 100	< 100
CCOC(=O)COc1cc(-c2ccc(/C=C3\SC(=S)N(C4C5CC6CC(C5)CC4C6)C3=O)o2)cc(OC)c1OC (centres unmarked) [Compound 30]	< 100	< 100
COC(=O)c1cc(-c2ccc(/C=C3\SC(=S)N(C4CC5CCC4C5)C3=O)o2)cc(OC)c1OC (centres unmarked) [Compound 31]	< 100	< 100
COC(=O)c1cc(-c2ccc(/C=C3\SC(=S)N(C4C5CC6CC(C5)CC4C6)C3=O)o2)cc(OC)c1OC (centres unmarked) [Compound 32]	< 100	< 100
COc1ccc(-c2ccc(/C=C3\SC(=S)N(C4C5CC6CC(C5)CC4C6)C3=O)o2)cc1OCC(=O)O (centres unmarked) [Compound 33]	< 100	< 100
COc1cc(OCC(=O)O)cc(-c2ccc(/C=C3\SC(=S)N(C4CC5CCC4C5)C3=O)o2)c1 (centres unmarked) [Compound 37]	< 100	< 100
COc1cc(OCC(=O)N[C@@H](Cc2ccccc2)C(=O)O)cc(-c2ccc(/C=C3\SC(=S)N(C4CC5CCC4C5)C3=O)o2)c1 (some centres unmarked) [Compound 83]	< 100	< 100
COc1cc(OCC(=O)N2CCC[C@H]2C(=O)O)cc(-c2ccc(/C=C3\SC(=S)N(C4CC5CCC4C5)C3=O)o2)c1 (some centres unmarked) [Compound 84]	< 100	< 100
COc1ccc(-c2ccc(/C=C3\SC(=S)N(C4CC5CCC4C5)C3=O)o2)cc1C(=O)N[C@@H](Cc1ccc(O)cc1)C(=O)O (some centres unmarked) [Compound 86]	< 100	< 100
O=C1/C(=C/c2oc(-c3ccccc3)cc2CO)SC(=S)N1C1C2CC3CC(C2)CC1C3 (centres unmarked) [Compound 92]	< 100	100 to 250
COc1cc(OC)cc(-c2cc(CCCO)c(/C=C3\SC(=S)N(C4C5CC6CC(C5)CC4C6)C3=O)o2)c1 (centres unmarked) [Compound 95]	< 100	< 100
O=C1/C(=C/c2oc(-c3ccc(Cl)cc3)cc2CCCO)SC(=S)N1C1CC2CCC1C2 (centres unmarked) [Compound 99]	< 100	< 100
COc1cc(O)cc(-c2cc(CCCO)c(/C=C3\SC(=S)N(C4CC5CCC4C5)C3=O)o2)c1 (centres unmarked) [Compound 101]	< 100	< 100
COc1cc(O)cc(-c2cc(CCCO)c(/C=C3\SC(=S)N(C4C5CC6CC(C5)CC4C6)C3=O)o2)c1 (centres unmarked) [Compound 102]	< 100	< 100
O=C1/C(=C/c2oc(-c3ccc(F)cc3)cc2CCCO)SC(=S)N1C1C2CC3CC(C2)CC1C3 (centres unmarked) [Compound 103]	< 100	< 100

Structure (SMILES)	EC50 (A/Udorn/72 (H3N2) virus) [nM]	EC50 (pseudoHIV particles) [nM]
O=C1/C(=C/c2oc(-c3ccc(F)cc3)cc2CCCO)SC(=S)N1C1CC2CCC1C2 (centres unmarked) [Compound 104]	< 100	< 100
COc1cc(O)cc(-c2cc(CCCC(C(=O)O)C(=O)O)c(/C=C3\SC(=S)N(C4CC5CCC4C5)C3=O)o2)c1 (centres unmarked) [Compound 137]		< 100
COc1cc(COc2ccc3oc(=O)c(-c4ccc(/C=C5\SC(=S)N(C6CC7CCC6C7)C5=O)s4)c(O)c3c2)cc(OC)c1 (centres unmarked) [Compound 315]	< 100	
O=C1/C(=C/c2ccc(-c3ccc(Cl)cc3)s2)SC(=S)N1C1CC2CCC1C2 (centres unmarked) [Compound 316]	< 100	
O=C1/C(=C/c2ccc(-c3ccc(Cl)cc3)s2)SC(=S)N1C1C2CC3CC(C2)CC1C3 (centres unmarked) [Compound 317]	< 100	
COC(=O)COc1ccc2c(O)c(-c3ccc(/C=C4\SC(=S)N(C5CC6CCC5C6)C4=O)o3)c(=O)oc2c1 (centres unmarked) [Compound 318]	< 100	
COC(=O)COc1ccc2c(O)c(-c3ccc(/C=C4\SC(=S)N(C5C6CC7CC(C6)CC5C7)C4=O)o3)c(=O)oc2c1 (centres unmarked) [Compound 319]	< 100	
CCCCCc1ccc2oc(=O)c(-c3ccc(/C=C4\SC(=S)N(C5CC6CCC5C6)C4=O)o3)c(O)c2c1 (centres unmarked) [Compound 320]	< 100	
O=C1/C(=C/c2ccc(-c3c(O)c4cc(OCc5ccc(Cl)cc5)ccc4oc3=O)o2)SC(=S)N1C1CC2CCC1C2 (centres unmarked) [Compound 321]	< 100	
O=C1/C(=C/c2ccc(-c3c(O)c4cc(Cl)ccc4oc3=O)o2)SC(=S)N1C1CC2CCC1C2 (centres unmarked) [Compound 322]	< 100	
O=C1/C(=C/c2ccc(-c3c(O)c4ccc(OC5CCCCC5)cc4oc3=O)o2)SC(=S)N1C1CC2CCC1C2 (centres unmarked) [Compound 323]	< 100	
O=C1/C(=C/c2ccc(-c3c(O)c4ccc(O)cc4oc3=O)o2)SC(=S)N1C1CC2CCC1C2 (centres unmarked) [Compound 324]	< 100	
O=C1/C(=C/c2ccc(-c3c(O)c4cc(O)ccc4oc3=O)o2)SC(=S)N1C1CC2CCC1C2 (centres unmarked) [Compound 325]	< 100	
COc1cc(COc2ccc3oc(=O)c(-c4ccc(/C=C5\SC(=S)N(C6CC7CCC6C7)C5=O)o4)c(O)c3c2)cc(OC)c1 (centres unmarked) [Compound 326]	< 100	
O=C1/C(=C/c2oc(-c3ccc(Cl)cc3)cc2CCCCO)SC(=S)N1C1CC2CCC1C2 (centres unmarked) [Compound 333]	< 100	
O=C1/C(=C/c2oc(-c3ccc(Cl)cc3)cc2CCCCCO)SC(=S)N1C1C2CC3CC(C2)CC1C3 (centres unmarked) [Compound 334]	< 100	
O=C1/C(=C/c2oc(-c3ccc(Cl)cc3)cc2CCCCO)SC(=S)N1C1C2CC3CC(C2)CC1C3 (centres unmarked) [Compound 335]	< 100	
COc1ccc2oc(=O)c(CCC(=O)OCCCc3cc(-c4ccc(Cl)cc4)oc3/C=C3\SC(=S)N(C4CC5CCC4C5)C3=O)c(O)c2c1 (centres unmarked) [Compound 336]	< 100	
O=C1/C(=C/c2oc(-c3ccc(C(F)(F)F)cc3)cc2CCCCCO)SC(=S)N1C1CC2CCC1C2 (centres unmarked) [Compound 337]	< 100	
O=C1/C(=C/c2oc(-c3ccc(C(F)(F)F)cc3)cc2CCCCCO)SC(=S)N1C1C2CC3CC(C2)CC1C3 (centres unmarked) [Compound 338]	< 100	
O=C1/C(=C/c2oc(-c3ccc(OC(F)(F)F)cc3)cc2CCCCCO)SC(=S)N1C1C2CC3CC(C2)CC1C3 (centres unmarked) [Compound 339]	< 100	

Structure (SMILES)	EC50 (A/Udorn/72 (H3N2) virus) [nM]	EC50 (pseudoHIV particles) [nM]
O=C1/C(=C/c2oc(-c3ccc(OC(F)(F)F)cc3)cc2CCCCCO)SC(=S)N1C1CC2CCC1C2 (centres unmarked) [Compound 340]	< 100	
COc1ccc(-c2cc(CCCCCO)c(/C=C3\SC(=S)N(C4CC5CCC4C5)C3=O)o2)cc1 (centres unmarked) [Compound 341]	< 100	
COc1ccc(-c2cc(CCCCCO)c(/C=C3\SC(=S)N(C4C5CC6CC(C5)CC4C6)C3=O)o2)cc1 (centres unmarked) [Compound 342]	< 100	
O=C1/C(=C/c2oc(-c3cccc(F)c3)cc2CCCCCO)SC(=S)N1C1CC2CCC1C2 (centres unmarked) [Compound 343]	< 100	
O=C1/C(=C/c2oc(-c3cccc(F)c3)cc2CCCCCO)SC(=S)N1C1C2CC3CC(C2)CC1C3 (centres unmarked) [Compound 344]	< 100	
O=C1/C(=C/c2oc(-c3cccc(Cl)c3)cc2CCCCCO)SC(=S)N1C1CC2CCC1C2 (centres unmarked) [Compound 345]	< 100	
O=C1/C(=C/c2oc(-c3cccc(Cl)c3)cc2CCCCCO)SC(=S)N1C1C2CC3CC(C2)CC1C3 (centres unmarked) [Compound 346]	< 100	
COc1cccc(-c2cc(CCCCCO)c(/C=C3\SC(=S)N(C4C5CC6CC(C5)CC4C6)C3=O)o2)c1 (centres unmarked) [Compound 347]	< 100	
COc1cccc(-c2cc(CCCCCO)c(/C=C3\SC(=S)N(C4CC5CCC4C5)C3=O)o2)c1 (centres unmarked) [Compound 348]	< 100	
COc1ccc(-c2cc(CCCO)c(/C=C3\SC(=O)N(C4CC5CCC4C5)C3=O)o2)cc1OCC(=O)N1CCC[C@H]1C(=O)O (some centres unmarked) [Compound 349]	< 100	
COc1cc(OCC(=O)N2CCC[C@H]2C(=O)O)cc(-c2cc(CCCO)c(/C=C3\SC(=S)N(C4CC5CCC4C5)C3=O)o2)c1 (some centres unmarked) [Compound 350]	< 100	
COc1cccc(-c2cc(CCCO)c(/C=C3\SC(=S)N(C4C5CC6CC(C5)CC4C6)C3=O)o2)c1 (centres unmarked) [Compound 352]	< 100	
COc1cccc(-c2cc(CCCO)c(/C=C3\SC(=S)N(C4CC5CCC4C5)C3=O)o2)c1 (centres unmarked) [Compound 353]	< 100	
COc1cccc(-c2cc(CCCOC(=O)[C@@H](CC(N)=O)NC(=O)OC(C)(C)C)c(/C=C3\SC(=S)N(C4C5CC6CC(C5)CC4C6)C3=O)o2)c1 (some centres unmarked) [Compound 354]	< 100	
COc1cc(OC)cc(-c2cc(CCCCCOC(=O)[C@]3(O)C[C@@H](O)[C@@H](O)[C@H](O)C3)c(/C=C3\SC(=S)N(C4CC5CCC4C5)C3=O)o2)c1 (some centres unmarked) [Compound 356]	< 100	
COc1cc(OC)cc(-c2cc(CCCCOC(=O)[C@]3(O)C[C@@H](O)[C@@H](O)[C@H](O)C3)c(/C=C3\SC(=S)N(C4CC5CCC4C5)C3=O)o2)c1 (some centres unmarked) [Compound 357]	< 100	
COc1cc(OC)cc(-c2cc(CCCCN3CCOCC3)c(/C=C3\SC(=S)N(C4CC5CCC4C5)C3=O)o2)c1 (centres unmarked) [Compound 359]	< 100	
COc1cc(OC)cc(-c2cc(CCCCCN3CCOCC3)c(/C=C3\SC(=S)N(C4CC5CCC4C5)C3=O)o2)c1 (centres unmarked) [Compound 360]	< 100	
CC(C)(C)OC(=O)N[C@@H](CC(N)=O)C(=O)N1CCN(CCCCCc2cc(-c3ccc(Cl)cc3)oc2/C=C2\SC(=S)N(C3C4CC5CC(C4)CC3C5)C2=O)CC1 (some centres unmarked) [Compound 373]	< 100	
